Laboratory results published in patent US7163923B2, “Peptide deformylase activated prodrugs” (Celmed Oncology (USA), Inc., priority 2001, dated 2007).
Like-named read-outs stand apart in the source and are kept apart here.

Tested on: E. coli
Assay: MIC susceptibility testing (modified NCCLS, 384-well)
Assay type: cell-based
Description: The NCCLS (National Committee for Clinical Laboratory Standards), method to determine MIC's of antimicrobial compounds is modified for high-throughput screening. All stocks of tested compounds are prepared in either water or in DMSO depending on solubility. At the highest concentration, DMSO content should not exceed 0.5%. Briefly, twenty 2-fold serial dilutions of test compounds from the highest concentration are made in a 384-well microtiter plate. Each well is inoculated with testing bacteria in broth to a final concentration of approximately 1–1.5×10^6 cells/ml. Bacterial growth is determined by the increase of optical density at 600 nm using a microplate reader (Tecan SpectraFluor Plus). The MIC is defined as the lowest concentration at which bacterial growth (equivalent to visible growth) was inhibited after 16 to 18 hours of incubation at the appropriate temperature required for the bacteria growth.
E. coli/TEM—E. coli expressing TEM-1 beta-lactamase; MRSA—Methicillin Resistant S. Aureus; MSSA—Methicillin Sensitive S. Aureus

Measured: MIC

CSCCC(NC=O)C(=O)NC(CC(C)C)C(=O)Oc1cc(Cl)ccc1Oc1ccc(Cl)cc1Cl (stereo not shown) [NB2046, 2-(2-formylamino-4-methylsulfanyl-butyrylamino)-4-methyl-pentanoic acid 5-chloro-2-(2,4-dichloro-phenoxy)-phenyl ester]
16 µg/mL: E. coli, Exp. #2, Table 4 | E. coli/Tem-1 (expressing TEM-1 beta-lactamase), Exp. #1, Table 4 | E. coli/Tem-1 (expressing TEM-1 beta-lactamase), Exp. #2, Table 4 | Escherichia coli, E. coli, Exp. #1, Table 4, read-out: MIC
